Columns and labels:
[1] = system: experimental autoimmune encephalomyelitis (EAE) mouse model; experiment: Study EAE-C06: dose response of BN201, clinical score in EAE mouse model; format: in vivo; details: almost all days of observation/treatment (Day 2 to day 30)
Procedure: A third experiment (Study EAE-C06) to test dose response of BN201 was then performed using the same mouse model.
Study EAE-C06: five different concentrations of BN201: 12.5 mg/kg, 25 mg/kg, 50 mg/kg, 100 mg/kg, and 150 mg/kg. Also sham, pathological control and FTY720 (2 mg/kg) comparator groups were included in the experiment. All groups were administered daily.
(§1) Clinical scores were assigned to assess disease severity using the following scale: 0=normal; 0.5=Partial tail paralysis; 1=Complete tail paralysis; 1.5=Tail paralysis and loss of righting reflex; 2=Partial hind limb paralysis/paralysis of one limb; 2.5=One limb paralysis and partial loss of activity of one other limb; 3=Bilateral hind limb paralysis; 4=Moribund; 5=exitus.
Therapeutic treatment was initiated on day 12 once each mouse started showing complete tail paralysis (Score 1).
Data are depicted in FIG. 1 (C), wherein the clinical score for each of the tested groups is plotted per day after disease onset.

[2] = system: experimental autoimmune encephalomyelitis (EAE) mouse model; experiment: Study EAE-C05: clinical score in EAE mouse model with active comparators; format: in vivo; details: 100 mg/kg daily, after 5 days of treatment
Procedure: A second experiment (Study EAE-C05) was then performed using the same mouse model.
Study EAE-C05: In addition to two dose levels of BN201 and a placebo-treated group (pathological control group), the study design introduced two active comparators, dimethyl fumarate (DMF) and fingolimod (FTY720), and a sham group (group in which animals were manipulated as the pathological group but without MOG injection). All groups were administered daily. • sham control non-diseased placebo-treated animals (healthy control group); • EAE-affected placebo-treated animals (pathological control group); • EAE-affected animals treated orally with 15 mg/kg of DMF; • EAE-affected animals treated with 2 mg/kg of FTY720; • EAE-affected animals treated with BN201 at 50 or 100 mg/kg.
as §1
Therapeutic treatment was initiated on day 12 or 13, once each mouse started showing complete tail paralysis (Score 1).

[3] = system: EAE in C57BL6 mice immunized with MOG35-55; experiment: Example 4: BN201 and STAT3 inhibitor combination, chronic phase of EAE; format: in vivo, mouse; details: BN201 50 mg/kg i.p. alone (optimal), from day 34 to day 54
Procedure: Effect during the chronic phase of the disease in the animal model of Multiple Sclerosis (i.e., EAE in C57BL6 mice immunized with MOG35-55)
Efficacy and safety of combination therapy with optimal doses of BN201 (50 mg/kg) and S31-201 (5 mg/kg) in the progression of chronic EAE in mice.
Starting the chronic phase of the disease (by day 34) mice were administered: • the STAT3 inhibitor S31-201 (group A, 7 mice), • BN201 (group B, 6 mice), or • a combination thereof (group C, 6 mice) once a day for six days per week at optimal dosages (5 mg/kg for S31-201, 50 mg/kg for BN201).
S31-201 and BN201 were administered via i.p. injection in a saline vehicle at a volume of 5 mL/kg. Control mice received vehicle only via both oral and i.p. injection (group D, 6 mice) or nothing at all (group E, 2 mice). Mice were treated from day 34 (chronic EAE stage) until the end of the experiment on day 54.
The combination of BN201 and the STAT3-inhibitor S31-201 was evaluated for its effect during the chronic phase of the disease in the animal model of Multiple Sclerosis (i.e., EAE in C57BL6 mice immunized with MOG35-55). The objective of the study was to evaluate the efficacy and safety of combination therapy with optimal doses of BN201 (50 mg/kg) and 531-201 (5 mg/kg) in the progression of chronic EAE in mice. […]

Question: `CC(C)CN(CC(=O)N(CCCN1CCCC1=O)CC(N)=O)C(=O)CNCCc1ccccc1F` [BN201, [N-(2-(2′-Fluorophenyl)ethyl)glycyl]-[N-(2-methylpropyl)glycyl]-N-[3-(2′-oxopyrrolidinyl)-propyl]glycinamide] was tested. Which clinical score ([1]; 50 mg/kg daily) did it give?
Answer: significant amelioration of the clinical score

Question: What about the clinical score ([1]; 100 mg/kg daily) of the same compound?
Answer: significant amelioration of the clinical score

Question: And the “clinical score compared to pathological control group” value [2]?
Answer: significantly lower

Question: What about the “course of EAE in chronic phase (clinical score)” value [3] of the same compound?
Answer: not efficacious

— patent publication US20260232752A1, “COMBINATION THERAPY METHODS, COMPOSITIONS AND KITS” (Accure Therapeutics, S.L., priority 2019, published 2026)
